The text below walks through data of US20260097022A1, “COMPOUNDS AND USES THEREOF” (Integrated Biosciences, Inc., priority 2023, published 2026).

Data set [1] concerns the target BRD4 (Homo sapiens, UniProt O60885). As to the kind of experiment: BRD4 inhibition. Format: biochemical.
Data set [2] relates to late-passage IMR-90 cells. As to the kind of experiment: Replicative senescence model, resazurin cell viability. To be noted: early- versus late-passage IMR-90 cells. It counts as cell-based, human. Here is the method: Cell culture. Human lung fibroblast (IMR-90) cells were obtained from ATCC (CCL-186) and passaged less than 10 times (less than 30 population doublings) for all experiments described in this example, with the exception of high-passage cells used in the model of replicative senescence (see the section on Replicative senescence below). Cells were cultured in growth media comprising Eagle's Minimum Essential Medium (EMEM: ATCC 30-2003) supplemented with 10% fetal bovine serum (FBS: Thermo Fisher 16140071) and 1% penicillin-streptomycin (Thermo Fisher 15070063). Cells were incubated in a humidity-controlled incubator at 37° C., with 5% CO2. Cells were detached using trypsin-EDTA (0.05%; Gibco 25300120).
Cells were then plated as described below.
Chemical screening. For all screening experiments. 99 μL of cells were plated into each well of a 96-well clear flat-bottom, black polystyrene tissue-culture-treated plate (Corning 3904) at a density of ˜10+ cells/well. Plates were incubated overnight for adhesion. The day after plating. […] After an additional 1 day of incubation, the fluorescence excitation/emission at 550/590 nm was read using a SpectraMaxR M3 plate reader and manufacturer software (SoftMax Pro R 6). […]
Calculation of cellular viability values in dose-response curves. […] For each sample, the fluorescence intensity value was normalized by the mean of two untreated control values. […]
For orientation: The colour change of resazurin is a common sign of viable cells or microbes.

Data set [3] addresses Bcl-XL (Homo sapiens, UniProt Q07817). Put plainly: Bcl-XL TR-FRET. It counts as binding.
Data set [4] concerns etoposide-treated IMR-90 cells. As to the kind of experiment: Etoposide-induced senescence model, resazurin cell viability (screen and dose-response). It counts as cell-based, human. To be noted: for effect on Sncs and control cells versus DMSO: concentrations between 1.5 to 3 μM, 3 days. The procedure, abridged:
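IMR-90 fibroblasts made senescent with 50 μM etoposide for 2 days, then 4 days recovery before plating. Compounds at 10 μM or 1 μM final (screen) or three-fold dilutions (1% DMSO) for 3 days, then 0.15 mM resazurin 1 day, fluorescence 550/590 nm. Viability expressed as fraction of untreated controls; biological duplicates.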

For data set [5], the system named is human red blood cells. As to the kind of experiment: Hemolysis assay. Format: cell-based. The conditions noted are these: up to a final concentration of 100 μM; 1 h at 37° C. Here is the method: Hemolysis assay. Whole human blood containing EDTA (Innovative Resarch IWB1K2E) was centrifuged at 120×g at 4° C., for 5 min and resuspended in Dulbecco's PBS (DPBS: VWR 02-0119-0500). These washing steps were repeated until the supernatant was clear. Red blood cells were then resuspended in DPBS to 5×10^8 cells/mL, and 100 μL of cells was plated into each well of a 96-well clear round-bottom plate. Compounds were added to the indicated concentrations, and DMSO was used as a vehicle. Samples were incubated for 1 h at 37° C., without shaking, after which plates were centrifuged at 1500×g at room temperature for 5 min to pellet cells. 60 μL of the supernatant from each sample was then transferred to a 96-well clear flat-bottom plate, and the absorbance was read at 405 nm using a SpectraMax M3 plate reader to quantify the amount of soluble hemoglobin. Fractional hemolysis was determined by linearly interpolating absorbance values with respect to a positive control (saturation with 10% Triton X-100) and a negative control (1% DMSO vehicle). Results are depicted in FIG. 14.

The target of data set [6] is Mcl-1 (Homo sapiens, UniProt Q07820). As to the kind of experiment: Mcl-1 TR-FRET. Format: binding. For orientation: TR-FRET usually uses a lanthanide donor and a delayed reading to cut background.
Where [7] appears, read: ratio of IC50 values for vehicle- and etoposide-treated IMR-90 cells, 3 days treatment.

The structures appear in SMILES notation.

Chain of Mcl-1 (Q07820 whole entry, species assumed): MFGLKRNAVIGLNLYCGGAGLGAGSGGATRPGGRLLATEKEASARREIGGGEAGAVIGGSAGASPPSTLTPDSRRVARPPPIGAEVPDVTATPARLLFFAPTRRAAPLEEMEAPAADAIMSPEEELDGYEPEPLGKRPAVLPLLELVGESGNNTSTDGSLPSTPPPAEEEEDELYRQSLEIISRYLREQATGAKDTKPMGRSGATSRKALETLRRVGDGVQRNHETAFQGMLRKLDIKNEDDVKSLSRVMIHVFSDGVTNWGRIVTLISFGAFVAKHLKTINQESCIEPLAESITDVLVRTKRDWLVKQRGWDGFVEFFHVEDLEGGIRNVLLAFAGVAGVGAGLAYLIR
Chain of Bcl-XL (Q07817 whole entry): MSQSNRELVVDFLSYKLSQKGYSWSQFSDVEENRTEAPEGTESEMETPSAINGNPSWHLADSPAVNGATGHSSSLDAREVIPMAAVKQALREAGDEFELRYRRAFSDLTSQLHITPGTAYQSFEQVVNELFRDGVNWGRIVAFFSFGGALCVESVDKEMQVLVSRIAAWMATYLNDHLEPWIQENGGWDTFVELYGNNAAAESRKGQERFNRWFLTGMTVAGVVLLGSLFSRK

As usually defined, the IC50 is the concentration needed to halve the response being measured. Low values mean inhibition by little substance, high ones a need for much substance. With `O=C(Nc1ccc(S(=O)(=O)Nc2ncccn2)cc1)c1ccc(-c2ccccc2)cc1` [BRD-K20733377], the values for the IC50 in data set [1] and in data set [3] were around 10 µM and around 1 µM, respectively. Besides, the “selectivity against late-passage Sncs compared with ABT-737” value in data set [2] is “similarly selective”. For the same molecule, the “effect on Sncs and control cells versus DMSO” value in data set [4] was “selective elimination of Sncs and no difference in the viabilities of control cells”. In data set [4] (setting [7]), the “Therapeutic Index (TI)” value worked out at 8.3. For the same molecule, in data set [5], the hemolysis result is reported as “did not induce significant hemolysis”.

Consider `COc1ccc(C(=O)Nc2ccc3nc(SCC(=O)Nc4ccccc4F)sc3c2)cc1OC` [compound 6], for which the IC50 in data set [6] was at least 100 µM. Besides, the “effect on Sncs and control cells versus DMSO” value in data set [4] was “selective elimination of Sncs and no difference in the viabilities of control cells”. Moreover, the hemolysis result in data set [5] was “did not induce significant hemolysis”.

On to `Cc1ccccc1C(=O)Nc1ccc2nc(SCC(=O)Nc3ccccc3)sc2c1` [compound 19], for which the “selectivity against late-passage Sncs compared with ABT-737” value in data set [2] is “less”. Besides, the “effect on Sncs and control cells versus DMSO” value in data set [4] was “selective elimination of Sncs and no difference in the viabilities of control cells”. Moreover, the “Therapeutic Index (TI)” value in data set [4] (etoposide-induced senescence model, ratio of IC50 values between etoposide- and DMSO-treated IMR-90 fibroblasts) was “+++ (compounds with a TI of >5 were labeled as +++)”; in data set [4] (setting [7]), 4.7. Besides, in data set [5], the hemolysis result is listed as “did not induce significant hemolysis”.
